# Experiments:
# SARS-CoV-2 3CL^pro [1] = molecular target: T1, SARS-CoV-2 3CL^pro (Severe acute respiratory syndrome coronavirus 2, UniProt P0DTD1); experiment: biochemical
# SARS-CoV-2 3CL^pro [2] = molecular target: T1, SARS-CoV-2 3CL^pro; experiment: Inactivation kinetic analyses against SARS-CoV-2 3CL^pro; assay type: biochemical
# [3] = IC50 (μM) 3 min, 3 min preincubation
# [4] = IC50 (μM) 63 min, 63 min preincubation
SMILES,Ratio (SARS-CoV-2 3CL^pro [1]),IC50 (SARS-CoV-2 3CL^pro [1]; [3]),IC50 (SARS-CoV-2 3CL^pro [1]; [4]),Ki (SARS-CoV-2 3CL^pro [2]),kinact (SARS-CoV-2 3CL^pro [2]; read-out: Kinact (min^−1))
COc1cc(O)c2c(=O)cc(-c3ccc(OC)c(-c4c(O)cc(O)c5c(=O)cc(-c6ccc(O)cc6)oc45)c3)oc2c1 [ginkgetin],10.32,76.5 µM,7.42 µM,,
O=c1cc(-c2ccc(O)cc2)oc2cc(O)cc(O)c12 [apigenin],3.62,115 µM,31.7 µM,,
COc1ccc(-c2cc(=O)c3c(O)cc(O)cc3o2)cc1-c1c(O)cc(O)c2c(=O)cc(-c3ccc(O)cc3)oc12 [bilobetin],3.54,32.1 µM,9.06 µM,,
Oc1cc(O)c2c(c1)O[C@H](c1ccc(O)c(O)c1)[C@H](O)C2 [epicatechin],6.22,70.6 µM,11.3 µM,,
O=c1cc(-c2ccc(O)c(-c3c(O)cc(O)c4c(=O)cc(-c5ccc(O)cc5)oc34)c2)oc2cc(O)cc(O)c12 [amentoflavone],1.92,82.1 µM,42.9 µM,,
Oc1cc(O)c2c(c1)O[C@H](c1cc(O)c(O)c(O)c1)[C@@H](O)C2 [gallocatechin],3.30,3.23 µM,0.98 µM,2520 nM,0.03 min⁻¹
COc1ccc(-c2cc(=O)c3c(O)cc(O)c(-c4cc(-c5cc(=O)c6c(O)cc(O)cc6o5)ccc4OC)c3o2)cc1 [isoginkgetin],2.01,70.8 µM,35.2 µM,,
O=c1cc(-c2ccc(O)c(O)c2)oc2cc(O)cc(O)c12 [luteolin],10.57,195 µM,18.4 µM,,
